From patent US12582638B2, “Pharmaceutical composition for treating cancer, containing mTOR-signaling inhibitor as active ingredient” (KOREA ADVANCED INSTITUTE OF SCIENCE AND TECHNOLOGY, priority 2020, dated 2026)

What was measured:
[1] = test system: COV434; experiment: Cell viability, CellTiterGlo, 72 hours; format: cell-based; settings: COV434 cells, Ovary
Protocol: In addition to the colorectal cells, 120 cancer cell lines treated with various concentrations of lomitapide were assayed for viability.
To analyze cell viability, the cells were incubated with lomitapide at 37° C. for 72 hours in a 5% or 10% CO2 atmosphere and then equilibrated at room temperature for 1 hour, followed by addition of CellTiterGlo reagent (Promega). One hour later, luminescence was measured to calculate cell viability (%). The 120 cell lines were purchased from ATCC (American Type Culture Collection, Virginia, USA).

[2] = test system: p-S6K, p-S6, LC3; experiment: Cell signaling assay, western blot, SW480; format: cell-based, human; settings: 0, 5, and 10 μM, FIG. 7a
Protocol: (§1) Cells treated with various concentrations (0, 5, and 10 μM) of lomitapide were lysed with RIPA buffer containing a protease-inhibitor cocktail. The whole-cell lysate was incubated on ice for 30 minutes. After centrifugation at 4° C. and 13,300×g for 15 minutes, the supernatant was collected. For use as controls, HCT116, SW480, HT29, MDA-MB-231, and MDA-MB-468 cells were treated with 1 μM of torin, known as an mTOR inhibitor.
For western blot analysis, the supernatant was loaded onto 10% SDS-PAGE gel. The separated proteins were blotted onto a PVDF membrane. Then, the blots were incubated with antibodies at 4° C. for 12 hours as follows (Table 2).
(§2) Then, the blots were washed with TBST (a mixture of tris-buffered saline (TBS) and Tween 20), incubated with horseradish peroxidase-conjugated secondary antibody (Cell signaling) at 37° C. for 1 hour, and washed, followed by detecting enhanced chemiluminescence (ECL; Amersham).

[3] = test system: p-S6K, p-S6, LC3; experiment: Cell signaling assay, western blot, HS746T; format: cell-based, human; settings: 0, 5, and 10 μM, FIG. 7e
Protocol: as §1, with “concentration” for “concentrations”, “controls,” for “controls, HCT116, SW480, HT29, MDA-MB-231, and MDA-MB-468”
(§3) For western blot analysis, the supernatant was loaded onto 10% SDS-PAGE gel. The separated proteins were blotted onto a PVDF membrane. Then, the blots were incubated with antibodies at 4° C. for 12 hours as follows (Table 3).
as §2

[4] = test system: p-S6K, p-S6, LC3; experiment: Cell signaling assay, western blot, SNU1; format: cell-based, human; settings: 0, 5, and 10 μM, FIG. 7f
Protocol: as §1, with “concentration” for “concentrations”, “controls,” for “controls, HCT116, SW480, HT29, MDA-MB-231, and MDA-MB-468”
as §3, §2

[5] = test system: p-S6K, p-S6, LC3; experiment: Cell signaling assay, western blot, SNU2; format: cell-based, human; settings: 0, 5, and 10 μM, FIG. 7g
Protocol: as §1, with “concentration” for “concentrations”, “controls,” for “controls, HCT116, SW480, HT29, MDA-MB-231, and MDA-MB-468”
as §3, §2

[6] = test system: HCT116 cells; experiment: Cell colony forming assay (crystal violet); format: cell-based, human; settings: 5 μM, 48 hours, vs wells treated without lomitapide
Protocol: To examine relationship between lomitapide and cancer cell colony forming rate in HCT116 cells, cancer cell colony forming rates were measured after addition of limitapide to HCT116 cells cultured in wells.
HCT116 cells were seeded at a density of 10^5 cells/well into 12-well plates and incubated 37° C. for 24 hours. Subsequently, the cells were incubated with 0 and 5 μM lomitapide at 37° C. for 48 hours in a 5% CO2 atmosphere. Then, 500 μL of crystal violet was added to each well and incubated at room temperature for 10 minutes to stain the cells. From the staining data, the cells were analyzed for growth rate.

[7] = test system: HCT116 cells; experiment: HCT116 mouse xenograft model, tumor size; format: in vivo; settings: BALB/c nude mice; 50 mg/kg or 25 or 50 mg/kg intraperitoneally, or 10 mg/kg intratumorally; vs DMSO control; FIG. 14
Protocol: Lomitapide was examined for anticancer effect in tumor-implanted mice by monitoring tumor sizes in the mouse xenograft model after treatment with lomitapide.
Animal experiments were conducted according to the guideline approved by the institutional animal care and use committee in the Korean Advanced Institute of Science and Technology. HCT116 cells (4×10^6) were injected subcutaneously into male BALB/c nude mice at 8-12 weeks of age. After an average tumor volume reached 50 mm^3, the mice were randomly divided into two groups (5 mice/group). The mice were measured for weight and tumor size every two days. Tumor sizes were measured using calipers and determined according to formula 0.5×(width)^2×(Length). P-values were determined using Student's T test. Lomitapide was intraperitoneally injected at a dose of 50 mg/kg into the mice at days 1, 2, 3, 7, 8, 9, 13, 14, 15, and 16 after start of the experiment. For a control, DMSO was injected intraperitoneally into the mice (FIG. 14a).
An additional animal experiment was conducted. Lomitapide was intraperitoneally injected at a dose of 25 or 50 mg/kg into mice five times every two days after start of the experiment. Intraperitoneal injection of DMSO into mice was conducted for a control (FIG. 14b). […]

## O=C(NC1CCN(CCCCC2(C(=O)NCC(F)(F)F)c3ccccc3-c3ccccc32)CC1)c1ccccc1-c1ccc(C(F)(F)F)cc1 [lomitapide, N-(2,2,2-trifluoroethyl)-9-[4-[4-[[[4′-(trifluoromethyl)[1,1′-biphenyl]2-yl]carbonyl]amino]-1-piperidinyl]butyl]-9H-fluoren-9-carboxamide]
[1]
  IC50: 3.1 µM
[2]
  conversion from LC3I into LC3II: increased induction of conversion from LC3I into LC3II
  phosphorylation levels of target proteins (p-S6K and p-S6): remarkably decreased phosphorylation levels
[3]
  conversion from LC3I into LC3II: increased induction of conversion from LC3I into LC3II
[3]; dose-dependent
  phosphorylation levels of target proteins (p-S6K, p-S6): remarkably decreased phosphorylation levels
[4]
  conversion from LC3I into LC3II: increased induction of conversion from LC3I into LC3II
[4]; dose-dependent
  phosphorylation levels of target proteins (p-S6K, p-S6): remarkably decreased phosphorylation levels
[5]
  conversion from LC3I into LC3II: increased induction of conversion from LC3I into LC3II
[5]; dose-dependent
  phosphorylation levels of target proteins (p-S6K, p-S6): remarkably decreased phosphorylation levels
[6]
  growth rate (colony forming): remarkably lower in growth rate
[7]
  tumor growth (tumor size): grow slowly, compared to the control
